Measured values from patent US20250099474A1 (priority 2022, published 2025).
Where two headings read alike, the source gives them in different places.

System: SARS-CoV-2
Format: in vivo, human
Settings: Phase 3 Part, mild/moderate patients, ITT, onset to randomization less than 72 hours; for Time to resolution of 12 COVID-19 symptoms: Maximum value / Time to resolution of 14 COVID-19 symptoms: Maximum value / Time to resolution of five COVID-19 symptoms: Maximum value: +: includes censored data
Experimental: The primary endpoint of Phase 3 Part was the time to resolution of five COVID-19 symptoms in mild/moderate SARS-CoV-2-infected patients, and the efficacy was verified by evaluation of the five COVID-19 symptoms in four grades (0: none, 1: mild, 2: moderate, 3: severe) by the patients themselves.
The 750/250 mg group received 750 mg on Day 1 as a loading dose and 250 mg on Days 2 to 5 as a maintenance dose.
The primary efficacy endpoint of Phase 3 Part for mild/moderate SARS-CoV-2-infected patients was the time to resolution of the five COVID-19 symptoms.
Existing symptoms that existed before the onset of COVID-19 and were determined by the subject to be worsening at the baseline (pre-administration test) time point had to be improved […] from the severity at the baseline time point. • Severity at baseline was “severe”→“moderate”, “mild”, or “none” • Severity at baseline was “moderate”→“mild”, or “none” • Severity at baseline was “mild”→[…] “none” • Existing symptoms that existed before the onset of COVID-19 and were determined by the subject not to be worsening at the baseline (pre-administration test) time point had to be maintained or improved from the severity at the baseline time point. • Severity at baseline was “severe”->“severe”, “moderate”, “mild”, or “none” • Severity at baseline was “moderate”->“moderate”, “mild”, or “none” • Severity at baseline was “mild”→“mild”, or “none” • Regarding symptoms other than the above, that is, symptoms that were not present before the onset of COVID-19 and developed at or after the baseline (pre-administration test) time point, such symptoms had to be eliminated. • Severity at baseline was “severe”, “moderate”, or “mild”→“none”
As the key secondary analysis of the primary endpoint, the same analysis as the primary analysis was performed for the population of the mild/moderate SARS-CoV-2-infected patients in the ITT population.

[1] = 375/125 mg group, 336 cases analyzed
[2] = 750/250 mg group, 330 cases analyzed

Structure (SMILES): Cn1cnc(Cn2c(=O)[nH]/c(=N\c3cc4cn(C)nc4cc3Cl)n(Cc3cc(F)c(F)cc3F)c2=O)n1 [(6E)-6-[(6-chloro-2-methyl-2H-indazol-5-yl)imino]-3-[(1-methyl-1H-1,2,4-triazol-3-yl)methyl]-1-[(2,4,5-trifluorophenyl)methyl]-1,3,5-triazinane-2,4-dione]
- Time to resolution of 14 COVID-19 symptoms: 25% point (375/125 mg group): 105.6, — hour
- Time to resolution of 14 COVID-19 symptoms: Difference of RMST (vs placebo) (375/125 mg group): -20.1 h
- Time to resolution of 14 COVID-19 symptoms: Difference of median value (vs placebo) (375/125 mg group): -44.1 h
- Time to resolution of 14 COVID-19 symptoms: Kaplan-Meier median value (375/125 mg group): 187.8 h
- Time to resolution of 14 COVID-19 symptoms: Minimum value (375/125 mg group): 2.4 h
- Time to resolution of 14 COVID-19 symptoms: Number of events (value in parentheses) (375/125 mg group): (71.7)
- Time to resolution of 14 COVID-19 symptoms: Restricted mean survival time during 21 days (RMST) (375/125 mg group): 257.9 h
- Time to resolution of five COVID-19 symptoms: 25% point (375/125 mg group): 99.5 h
- Time to resolution of five COVID-19 symptoms: 75% point (375/125 mg group): 424.8 h
- Time to resolution of five COVID-19 symptoms: Difference of RMST (vs placebo) (375/125 mg group): -19.4 h
- Time to resolution of five COVID-19 symptoms: Difference of median value (vs placebo) (375/125 mg group): -24.3 h
- Time to resolution of five COVID-19 symptoms: Kaplan-Meier median value (375/125 mg group): 167.9 h
- Time to resolution of five COVID-19 symptoms: Minimum value (375/125 mg group): 2.4 h
- Time to resolution of five COVID-19 symptoms: Number of events (value in parentheses) (375/125 mg group): (75.6)
- Time to resolution of five COVID-19 symptoms: Restricted mean survival time during 21 days (RMST) (375/125 mg group): 241.6 h
- Time to resolution of 12 COVID-19 symptoms: Number of events [1]: 244
- Time to resolution of 14 COVID-19 symptoms: Number of events [1]: 241
- Time to resolution of five COVID-19 symptoms: Number of events [1]: 254
- Time to resolution of 12 COVID-19 symptoms: Maximum value (375/125 mg group): 489.1 h
- Time to resolution of 14 COVID-19 symptoms: Maximum value (375/125 mg group): 489.1 h
- Time to resolution of five COVID-19 symptoms: Maximum value (375/125 mg group): 489.1 h
- Time to resolution of 12 COVID-19 symptoms: 25% point (750/250 mg group): 114.2 h
- Time to resolution of 12 COVID-19 symptoms: 75% point (750/250 mg group): 422.7 h
- Time to resolution of 12 COVID-19 symptoms: Difference of RMST (vs placebo) (750/250 mg group): -20.8 h
- Time to resolution of 12 COVID-19 symptoms: Difference of median value (vs placebo) (750/250 mg group): -28.3 h
- Time to resolution of 12 COVID-19 symptoms: Kaplan-Meier median value (750/250 mg group): 184.9 h
- Time to resolution of 12 COVID-19 symptoms: Minimum value (750/250 mg group): 9.4 h
- Time to resolution of 12 COVID-19 symptoms: Number of events (value in parentheses) (750/250 mg group): (78.2)
- Time to resolution of 12 COVID-19 symptoms: Restricted mean survival time during 21 days (RMST) (750/250 mg group): 249.9 h
- Time to resolution of 14 COVID-19 symptoms: 25% point (750/250 mg group): 117.1 h
- Time to resolution of 14 COVID-19 symptoms: 75% point (750/250 mg group): 431.6 h
- Time to resolution of 14 COVID-19 symptoms: Difference of RMST (vs placebo) (750/250 mg group): -22.0 h
- Time to resolution of 14 COVID-19 symptoms: Difference of median value (vs placebo) (750/250 mg group): -41.5 h
- Time to resolution of 14 COVID-19 symptoms: Kaplan-Meier median value (750/250 mg group): 190.3 h
- Time to resolution of 14 COVID-19 symptoms: Minimum value (750/250 mg group): 9.4 h
- Time to resolution of 14 COVID-19 symptoms: Number of events (value in parentheses) (750/250 mg group): (77.3)
- Time to resolution of 14 COVID-19 symptoms: Restricted mean survival time during 21 days (RMST) (750/250 mg group): 256.0 h
- Time to resolution of five COVID-19 symptoms: 25% point (750/250 mg group): 96.7 h
- Time to resolution of five COVID-19 symptoms: 75% point (750/250 mg group): 360.9 h
- Time to resolution of five COVID-19 symptoms: Difference of RMST (vs placebo) (750/250 mg group): -26.1 h
- Time to resolution of five COVID-19 symptoms: Difference of median value (vs placebo) (750/250 mg group): -21.0 h
- Time to resolution of five COVID-19 symptoms: Kaplan-Meier median value (750/250 mg group): 171.2 h
- Time to resolution of five COVID-19 symptoms: Minimum value (750/250 mg group): 9.4 h
- Time to resolution of five COVID-19 symptoms: Number of events (value in parentheses) (750/250 mg group): (79.6)
- Time to resolution of five COVID-19 symptoms: Restricted mean survival time during 21 days (RMST) (750/250 mg group): 234.8 h
- Time to resolution of five COVID-19 symptoms: Number of events (750/250 mg group, 329 cases analyzed): 262
- Time to resolution of 12 COVID-19 symptoms: Number of events [2]: 258
- Time to resolution of 14 COVID-19 symptoms: Number of events [2]: 255
- Time to resolution of 12 COVID-19 symptoms: Maximum value (750/250 mg group): 490.1 h
- Time to resolution of 14 COVID-19 symptoms: Maximum value (750/250 mg group): 490.1 h
- Time to resolution of five COVID-19 symptoms: Maximum value (750/250 mg group): 490.1 h
